Patent publication US5891679A, “TNF-alpha muteins and a process for preparing them” (priority 1993, dated 1999)
Entries after “also recorded” stand apart in the source; their conditions may differ. Bridges are numbered along the chain shown (N, C = ends). The star is where a group is joined. Biotin = O=C1N[C@H]2[C@H](CS[C@H]2CCCCC(=O)*)N1

Key:
[1] = test system: Trypanosoma brucei brucei; assay: In vitro trypanocidal assay, T. brucei brucei; format: cell-based; conditions: for % inhibition of trypanocidal activity: lectin 10 μg/ml; for effect on trypanocidal activity of TNF-α / tip peptide: preincubation or cotreatment with the substance; for Δ: % inhibition of trypanocidal activity by the addition of the p55 hTNFα receptor protein: p55 5 μg/ml
Procedure: The Trypanosoma brucei brucei AnTat 1.1 (EATRO 1125) pleomorphic bloodstream form was kindly provided to us by Dr. N. Van Meirvenne of the Institute for Tropical Medecine, Antwerp, Belgium, and the Trypanosoma brucei rhodesiense Trp 11 pleomorphic bloodstream form was kindly provided to us by Dr. E. Bajyana Songa (Dept. Molecular Biology, Free University of Brussels, Belgium)
After 5 h of incubation, the number of live (=moving) parasites was assessed (counting chamber) and compared the control wells in which only incubation medium was added to the trypanosomes. […] All treatments were done in quadruplicate and all reported in vitro trypanolysis experiments were repeated at least 3 times.

L929 cells = assay: L929 cell killing (cytotoxic/cytolytic/tumoricidal) assay; format: cell-based, mouse; conditions: for effect on mTNF-α tumoricidal (cytolytic) activity: preincubation of mTNF-α with the substance; for Δ: % inhibition of tumoricidal activity by the addition of the p55 hTNFα receptor protein: p55 5 μg/ml
Procedure: L929 fibrosarcoma cells were obtained from the Rega Institute, Leuven, Belgium.
After 18 h of culture at 37° C., viability of the cell cultures was assessed by dye uptake analysis. […] The plates were read spectrophotometrically at 577 nm with a Titertek multiscan MCC340 ELISA Reader (Flow Laboratories, McLean, Va.).

[2] = test system: human interleukin-6 (IL6); assay: IL6 production by hMVECb cells; format: cell-based; conditions: 24 hours
Procedure: Subsequently, the IL6 concentration in the supernatant of the cells was assessed using a commercially available hIL6 ELISA kit (Medgenix, Belgium).

[3] = test system: human interleukin 8 (IL8); assay: IL8 production by hMVECb cells; format: cell-based

## GNA: lectin Galanthus nivalis agglutinin [reference compound]
[1]; mTNF-α 1.000 pg/ml
  % inhibition of trypanocidal activity: 5 ± 3%
[1]; mTNF-α 10.000 pg/ml
  % inhibition of trypanocidal activity: 5 ± 2%
[1]; mTNF-α 100 pg/ml
  % inhibition of trypanocidal activity: 0 ± 1%
[1]; mTNF-α 100.000 pg/ml
  % inhibition of trypanocidal activity: 3 ± 2%
[1]; mTNF-α 1.000.000 pg/ml
  % inhibition of trypanocidal activity: 2 ± 1%
[1]
  effect on trypanocidal activity of TNF-α / tip peptide: did not have any effect
L929 cells; L929 cells
  effect on mTNF-α tumoricidal (cytolytic) activity: none of these lectins had any effect

## CC(=O)N[C@H]1[C@H](O[C@H]2[C@H](O)[C@@H](NC(C)=O)C(O)O[C@@H]2CO)O[C@H](CO)[C@@H](O)[C@@H]1O (stereo partly drawn) [N,N'-diacetylchitobiose, reference compound]
[1]
  effect on trypanocidal activity of TNF-α / tip peptide: potently inhibits the trypanocidal activity; also recorded: potent inhibition of the mTNF-α trypanocidal effect; also recorded: trypanocidal activity of the peptide can also be inhibited
L929 cells; L929 cells
  effect on mTNF-α tumoricidal (cytolytic) activity: not the cytolytic activity; also recorded: not affected

## Bio-GG-C-TPEGAE-C (Biotin-GGCTPEGAEC-NH2; cysteine pairing not given here) [subpep 1]
[1]; T. brucei brucei
  trypanocidal activity: full trypanocidal activity

## Bio-GG-CGQRETPEGAEAKPWYC [hTNFα-tip]
[1]; T. brucei brucei
  trypanocidal activity: shows similar results

## Bio-GG-C - - - - APEGAE - - - - - C (Biotin-GGCAPEGAEC-NH2; cysteine pairing not given here) [mutpep 1]
[1]; T. brucei brucei
  trypanocidal activity: lost their trypanocidal activity

## Bio-GG-C-TPEGAA-C (Biotin-GGCTPEGAAC-NH2; cysteine pairing not given here) [mutpep 5]
[1]; T. brucei brucei
  trypanocidal activity: lost their trypanocidal activity

## [Cl-].[Li+] [LiCl, reference compound]
[1]; 1 μg/ml of LiCl co-treatment
  potentiation of trypanocidal effect of TNF-α: 100 fold
[1]; T. brucei brucei, 5 h, data not shown
  mortality of trypanosomes: by itself had no effect on the survival of the trypanosomes
[1]
  effect on trypanocidal activity of TNF-α / tip peptide: synergistically potentiates the trypanocidal effect of mTNF-α

## Bio-GG-CGPKDTPEGAELKPWYC (Biotin-GGCGPKDTPEGAELKPWYC-NH2; disulfide 3-19 (inferred)) [mTNFα-tip]
[1]; T. brucei brucei
  trypanocidal activity: shows a trypanocidal activity
[1]; in vitro trypanocidal assay, average specificity
  trypanocidal specific activity: 4×10^2 -4×10^3 U/mg of peptide
L929 cells; L929 cells, similar dose response curve, data not shown
  tumoricidal activity of tip peptide: exerts no tumoricidal activity

## Bio-GG-C-TAEGAE-C (Biotin-GGCTAEGAEC-NH2; cysteine pairing not given here) [mutpep 2]
[1]; T. brucei brucei
  trypanocidal activity: fully or even more active

## Bio-GG-C-TPAGAE-C (Biotin-GGCTPAGAEC-NH2; cysteine pairing not given here) [mutpep 3]
[1]; T. brucei brucei
  trypanocidal activity: lost their trypanocidal activity

## Bio-GG-C-TPEAAE-C (Biotin-GGCTPEAAEC-NH2; cysteine pairing not given here) [mutpep 4]
[1]; T. brucei brucei
  trypanocidal activity: fully or even more active

## Bio-GG-EGAELKPWY [subpep 2]
[1]; T. brucei brucei
  trypanocidal activity: strongly reduced trypanocidal activity

B1: P106A mTNF-α: Pro106 of mTNF-α is changed to an Ala residue (protein)
chain: LRSSSQNSSDKPVAHVVANHQVEEQLEWLSQRANALLANGMDLKDNQLVVPADGLYLVYSQVLFKGQGCPDYVLLTHTVSRFAISYQEKVNLLSAVKSPCPKDTAEGAELKPWYEPIYLGGVFQLEKGDQLSAEVNLPKYLDFAESGQVYFGVIAL
[2]; 333 pg/ml, experiment 1
  IL6 concentration: 720 pg/mL
[2]; 333 pg/ml, experiment 2
  IL6 concentration: 1300 pg/mL
[2]; 1000 pg/ml, experiment 1
  IL6 concentration: 560 pg/mL
[2]; 1000 pg/ml, experiment 2
  IL6 concentration: 750 pg/mL
[2]; 1666 pg/ml, experiment 1
  IL6 concentration: 800 pg/mL
[2]; 1666 pg/ml, experiment 2
  IL6 concentration: 1300 pg/mL
[3]; 333 pg/ml, experiment 1, 24 hours
  IL8 concentration: 300 pg/mL
[3]; 333 pg/ml, experiment 2, 24 hours
  IL8 concentration: 400 pg/mL
[3]; 1000 pg/ml, experiment 1, 24 hours
  IL8 concentration: 1100 pg/mL
[3]; 1000 pg/ml, experiment 2, 24 hours
  IL8 concentration: 1500 pg/mL
[3]; 1666 pg/ml, experiment 1, 24 hours
  IL8 concentration: 250 pg/mL
[3]; 1666 pg/ml, experiment 2, 24 hours
  IL8 concentration: 900 pg/mL
[3]; hMVECb, 24 hours
  fold less IL8 induced than wild type TNF-α: about 3 fold
[3]; human endothelial brain cells
  IL8 induction compared with wild type: induce consistently less human interleukin 8 (IL8)

B2: soluble p55 hTNF-α receptor: soluble p55 hTNF-α receptor protein (protein)
chain: DSVCPQGKYIHPQNNSICCTKCHKGTYLYNDCPGPGQDTDCRECESGSFTASENHLRHCLSCSKCRKEMGQVEISSCTVDRDTVCGCRKNQYRHYWSENLFQCFNCSLCLNGTVHLSCQEKQNTVCTCHAGFFLRENECVSCSNCKKSLECTKLCLPQIEN
[1]; mTNF-α 100 pg/ml
  Δ: % inhibition of trypanocidal activity by the addition of the p55 hTNFα receptor protein: 15 ± 5%
[1]; mTNF-α 1000 pg/ml
  Δ: % inhibition of trypanocidal activity by the addition of the p55 hTNFα receptor protein: 10 ± 4%
[1]; mTNF-α 10000 pg/ml
  Δ: % inhibition of trypanocidal activity by the addition of the p55 hTNFα receptor protein: 7 ± 5%
[1]
  effect on trypanocidal activity of TNF-α / tip peptide: hardly influenced
L929 cells; mTNF-α 100 pg/ml
  Δ: % inhibition of tumoricidal activity by the addition of the p55 hTNFα receptor protein: 100 ± 5%
L929 cells; mTNF-α 1000 pg/ml
  Δ: % inhibition of tumoricidal activity by the addition of the p55 hTNFα receptor protein: 100 ± 4%
L929 cells; mTNF-α 10000 pg/ml
  Δ: % inhibition of tumoricidal activity by the addition of the p55 hTNFα receptor protein: 5 ± 2%
L929 cells; L929 cells
  effect on mTNF-α tumoricidal (cytolytic) activity: potently inhibits the mTNF-α tumoricidal activity
